In publication PMC3894180, “GABAA Receptors Containing ρ1 Subunits Contribute to In Vivo Effects of Ethanol in Mice” (PLoS ONE, 2014):

Molecular target: T1, human GABAA ρ2 receptor (homomeric) (Homo sapiens, UniProt P28476)
T1 construct: gene GABRR2; full-length homomeric pentamer; cRNA from pGEMHE vector injected into Xenopus laevis oocytes
Assay: two-electrode voltage clamp, Xenopus oocytes
Assay type: cell-based

T1 sequence (P28476 21-465): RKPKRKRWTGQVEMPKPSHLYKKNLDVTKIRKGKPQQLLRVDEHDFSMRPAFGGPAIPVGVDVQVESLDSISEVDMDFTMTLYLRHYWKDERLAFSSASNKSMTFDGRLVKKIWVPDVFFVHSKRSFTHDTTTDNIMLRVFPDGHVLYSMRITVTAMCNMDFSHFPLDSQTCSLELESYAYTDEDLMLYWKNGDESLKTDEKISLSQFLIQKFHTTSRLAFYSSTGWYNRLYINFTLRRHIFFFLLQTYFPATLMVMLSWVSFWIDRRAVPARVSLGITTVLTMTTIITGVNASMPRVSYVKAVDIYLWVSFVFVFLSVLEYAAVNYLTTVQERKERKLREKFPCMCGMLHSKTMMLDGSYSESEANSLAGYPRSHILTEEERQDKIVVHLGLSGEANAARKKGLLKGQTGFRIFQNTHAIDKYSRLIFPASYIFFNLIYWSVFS

Question: With `NCCCC(=O)O` [GABA] as the compound, how does the EC50 read?
Answer: 891 nM
